In ChEMBL document CHEMBL3352203, “Bioactive sulfur-containing sulochrin dimers and other metabolites from an Alternaria sp. isolate from a Hawaiian soil sample” (J Nat Prod, 2014) one finds MIC and IC50 data, which are given here for four compounds.

Converted amounts (≈) assume the structure as drawn.

One assay deals with Staphylococcus aureus. The assay is described as follows: Antibacterial activity against Staphylococcus aureus ATCC 700787 after 17 hrs. The format is functional. Particulars: ATCC 700787, 17 h.
Assay [1] is described as follows: Cytotoxicity against human MIAPaCa2 cells assessed as after 48 hrs by MTT assay. Type of assay: functional, cell-based. Particulars: MIA PaCa-2, 48 h. On the technique in general: Tetrazolium assays rely on reduction of a dye to a coloured formazan, in cell work by metabolically active cells.

As a reminder, the MIC is the lowest concentration found to suppress growth. As usually defined, the IC50 is the concentration at which inhibition is half-maximal. In turn, `COC(=O)c1c(Sc2c(O)cc(OC)c(C(=O)c3c(O)cc(C)cc3O)c2C(=O)OC)c(O)cc(OC)c1C(=O)c1c(O)cc(C)cc1O` displayed an MIC in the assay with Staphylococcus aureus of 4.1 µM (≈ 2.85 µg/mL). The IC50 in assay [1] was 50.8 µM.

As for `COC(=O)c1c(Sc2c(O)cc3oc4cc(C)cc(O)c4c(=O)c3c2C(=O)OC)c(O)cc2oc3cc(C)cc(O)c3c(=O)c12`, the MIC in the assay on Staphylococcus aureus was found to be 3.2 µM (≈ 2.02 µg/mL). Moreover, the IC50 in assay [1] stood at 29.3 µM.

Take `O=C(N[C@H](CO)[C@H](O)c1ccc([N+](=O)[O-])cc1)C(Cl)Cl` [CHLORAMPHENICOL]: the minimal inhibitory concentration (MIC) against Staphylococcus aureus was determined as 5 µM (≈ 1.62 µg/mL).

In the assay on Staphylococcus aureus, `COC(=O)c1c(Sc2c(O)cc3oc4cc(C)cc(O)c4c(=O)c3c2C(=O)OC)c(O)cc(OC)c1C(=O)c1c(O)cc(C)cc1O` showed an MIC of 4.9 µM (≈ 3.25 µg/mL). Also, in assay [1], the IC50 is 30.3 µM.
